Usually IC50 stands for the concentration that gives 50% inhibition. As a reminder, the inhibition is the drop in the measured response relative to a control, in per cent.

This note sets out measurements from ChEMBL document CHEMBL3994640, “Klyflaccisteroids K-M, bioactive steroidal derivatives from a soft coral Klyxum flaccidum” (Bioorg Med Chem Lett, 2017).

Assay [1] has as its system Neutrophil. Put plainly: Anti-inflammatory activity in human neutrophils assessed as inhibition of fMLP/CB-induced superoxide anion generation preincubated for 5 mins followed by cytochalasin B addition for 3 mins and fMLP for 10 mins by superoxide dismutase inhibitable reduction of ferricytochrome c based assay. It counts as functional, cell-based.
A further assay deals with K562. As to the kind of experiment: Cytotoxicity against human K562 cells after 72 hrs by alamar blue assay. The conditions noted are these: K562, 72 h. The assay is classed as functional, cell-based. Background: Alamar Blue is a resazurin reagent that responds to reducing activity.
For another assay, the system named is A549. As to the kind of experiment: Cytotoxicity against human A549 cells after 72 hrs by alamar blue assay. It counts as functional, cell-based. The conditions noted are these: A549, 72 h.
Assay [2] deals with Neutrophil. Put plainly: Anti-inflammatory activity in human neutrophils assessed as inhibition of fMLP/CB-induced elastase release at 10 uM preincubated for 5 mins followed by fMLP/CB stimulation for 10 mins using MeO-Suc-Ala-Ala-Pro-Val-p-nitroanilide as substrate. The assay is classed as functional.
The subject of assay [3] is Neutrophil. As to the kind of experiment: Anti-inflammatory activity in human neutrophils assessed as inhibition of fMLP/CB-induced elastase release preincubated for 5 mins followed by fMLP/CB stimulation for 10 mins using MeO-Suc-Ala-Ala-Pro-Val-p-nitroanilide as substrate. The assay is classed as functional, cell-based.
The subject of the next assay is HT-29. Put plainly: Cytotoxicity against human HT-29 cells after 72 hrs by alamar blue assay. It counts as functional, cell-based. Particulars: HT-29, 72 h.
The test system of the next assay is DLD-1. As to the kind of experiment: Cytotoxicity against human DLD1 cells after 72 hrs by alamar blue assay. Particulars: DLD-1, 72 h. It counts as functional, cell-based.
For assay [4], the system named is Neutrophil. As to the kind of experiment: Anti-inflammatory activity in human neutrophils assessed as inhibition of fMLP/CB-induced superoxide anion generation at 10 uM preincubated for 5 mins followed by cytochalasin B addition for 3 mins and fMLP for 10 mins by superoxide dismutase inhibitable reduction of ferricytochrome c based assay relative to control. It counts as functional.

The subject of another assay is P388. Put plainly: Cytotoxicity against mouse P388 cells after 72 hrs by alamar blue assay. The assay is classed as functional, cell-based. Particulars: P388, 72 h.

The structures appear in SMILES notation.

On to `CC(C)[C@@H](C)C[C@H](O)[C@@H](C)[C@H]1CC[C@H]2[C@@H]3[C@@H](O)C=C4C[C@@H](O)CC[C@]4(C)[C@H]3CC[C@]12C`, for which the IC50 was above 10 µM in the assay on Neutrophil [1]; above 40 µM in the assay on K562; above 40 µM in the assay on A549; 5.84 µM with Neutrophil [3]; 36.7 µM with HT-29; above 40 µM in the assay on DLD-1. Besides, half-maximal inhibition in the assay on P388 (IC50) was put at 31.8 µM. Moreover, the inhibition at 10 µM stood at 79.2% with Neutrophil [2] and 12.6% with Neutrophil [4].
As to `CC(C)[C@@H](C)[C@@]1(C)C[C@@H]1[C@@H](C)[C@H]1CC[C@@H]([C@@]23C=C[C@]4(C[C@@H](O)CC[C@]4(C)C2=O)OO3)[C@]1(C)CCO`, the IC50 in the assay with Neutrophil [1] amounted to 5.83 µM; with K562, 22.5 µM; with A549 it was 15.8 µM; with Neutrophil [3], 1.55 µM; in the assay with HT-29, 27.5 µM; in the assay with DLD-1, 27.5 µM. This compound displayed a half-maximal inhibitory concentration (IC50) in the assay with P388 above 40 µM. For the same compound, the inhibition at 10 µM in the assay with Neutrophil [2] is 111%; with Neutrophil [4] it was 67%.
`CC(C)[C@@H](C)[C@@]1(C)C[C@@H]1[C@@H](C)[C@H]1CC[C@H]2[C@@H]3[C@H](O)C=C4C[C@@H](O)CC[C@]4(C)[C@@]3(O)OC[C@]12C`: the IC50 with Neutrophil [1] is above 10 µM; in the assay on K562, above 40 µM; in the assay with A549, above 40 µM; in the assay with Neutrophil [3], above 10 µM; with HT-29, above 40 µM; with DLD-1, above 40 µM. The compound further returned an IC50 in the assay on P388 above 40 µM. The figures for the inhibition at 10 µM in the assay with Neutrophil [2] and in the assay on Neutrophil [4] were 25.2% and 1.21%, respectively.
In turn, `COc1cccc2c1C(=O)c1c(O)c3c(c(O)c1C2=O)C[C@@](O)(C(=O)CO)C[C@@H]3O[C@H]1C[C@H](N)[C@H](O)[C@H](C)O1` [DOXORUBICIN] displayed an IC50 in the assay on HT-29 of 0.87 µM.
